Test results as given in ChEMBL document CHEMBL1201862, “PubChem BioAssay data set” (2004).
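Growth conditions: 96-well plates. Treatment: test compound, 48 hours, 5 concentrations. Analysis: linear interpolation between bracketing concentrations; unreached endpoints set to highest concentration. GI50 = concentration required for 50% inhibition of growth.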 The source made the active and inactive calls. Cut-off read from the data, not from the text of the source: active = GI50 up to about 1.1 µM and inactive = higher.

Key:
Assay in all cases: DTP human tumour cell line panel, 48 h
[1] = system: SK-MEL-2
[2] = system: 786-0
[3] = system: RPMI-8226
[4] = system: HCT-15
[5] = system: SF-295
[6] = system: SK-MEL-5
[7] = system: U-251
[8] = system: SNB-75
[9] = system: MDA-N
[10] = system: LOX IMVI
[11] = system: MDA-MB-231
[12] = system: HL-60
[13] = system: EKVX
[14] = system: BT-549
[15] = system: HOP-62
[16] = system: SNB-19
[17] = system: HCT-116
[18] = system: ACHN
[19] = system: SK-MEL-28
[20] = system: Malme-3M

Measured: GI50

C#CCOC(=O)c1ccccc1O
inactive: [1] > 100 µM | [2] > 100 µM | [3] > 100 µM | [5] > 100 µM | [6] > 100 µM | [7] > 100 µM | [8] > 100 µM | [9] > 100 µM | [10] > 100 µM | [11] > 100 µM | [12] > 100 µM | [13] > 100 µM | [14] > 100 µM | [15] > 100 µM | [16] > 100 µM | [17] > 100 µM | [18] > 100 µM
> 100 µM: [4]

COC(=O)C1(NC(=O)C(CC(=O)OCc2ccccc2)NC(=O)OCc2ccccc2)CCCCCC1 (stereo not given)
38.1 µM: [4]
inactive: [2] 38.5 µM | [3] 3.93 µM | [19] 26.3 µM | [5] 34.4 µM | [6] 15.4 µM | [7] 44.9 µM | [8] 35.1 µM | [9] 24.7 µM | [20] 24.1 µM | [10] 24.8 µM | [11] 32.4 µM | [12] 17.7 µM | [13] 47.6 µM | [14] 17.4 µM | [15] 10.1 µM | [16] 51.8 µM | [17] 31 µM | [18] 34 µM

COc1ccc(-n2c3c(c4c(CN(C)C)c(O)ccc42)C(=O)c2ccccc2C3=O)cc1
inactive: [1] 10 µM | [2] 1.89 µM | [3] 2.17 µM | [19] 3.38 µM | [5] 14.7 µM | [6] 1.69 µM | [7] 2.94 µM | [9] 4.62 µM | [20] 11.4 µM | [10] 2.49 µM | [11] 3.08 µM | [12] 3.13 µM | [13] 7.76 µM | [14] 13.6 µM | [15] 2.02 µM | [16] 4.4 µM | [17] 1.68 µM | [18] 2.17 µM
3.1 µM: [4]

N#Cc1[nH]c(=O)n(-c2cccc3ccccc23)c1N
inactive: [1] > 10 µM | [2] > 10 µM | [19] > 10 µM | [5] > 10 µM | [6] > 10 µM | [7] > 10 µM | [9] > 10 µM | [20] > 10 µM | [10] > 10 µM | [11] > 10 µM | [12] > 10 µM | [13] > 10 µM | [14] 4.61 µM | [15] > 10 µM | [16] > 10 µM | [17] > 10 µM | [18] > 10 µM
> 10 µM: [4]
active: [3] 0.001 µM

Nc1ccc(Oc2ccc(C34CC5CC6C3CC3CC4C(C5)C6(c4ccc(Oc5ccc(N)c(O)c5)cc4)C3)cc2)cc1O
inactive: [1] 19.5 µM | [2] 3.15 µM | [3] 1.93 µM | [19] 7.06 µM | [5] 3.58 µM | [6] 2.96 µM | [7] 2.58 µM | [9] 3.22 µM | [20] 13.8 µM | [10] 2.87 µM | [11] 3.75 µM | [13] 1.79 µM | [14] 1.15 µM | [15] 4.78 µM | [16] 3.57 µM | [17] 1.31 µM | [18] 2.44 µM
3.44 µM: [4]
active: [12] 0.542 µM

CC1(C)C2CC1C(/C=N\OCC(=O)O)=CC2=O (stereo not given)
> 100 µM: [4]
inactive: [1] > 100 µM | [2] > 100 µM | [3] > 100 µM | [19] > 100 µM | [5] > 100 µM | [6] > 100 µM | [7] > 100 µM | [9] > 100 µM | [20] > 100 µM | [10] > 100 µM | [11] > 100 µM | [12] > 100 µM | [13] > 100 µM | [14] > 100 µM | [15] > 100 µM | [16] > 100 µM | [17] > 100 µM | [18] > 100 µM

CCOC(=O)c1c(C)nc2c3ccccc3c(C#N)c(C)n12
inactive: [1] > 100 µM | [2] > 10 µM | [3] > 100 µM | [19] > 100 µM | [5] 34.9 µM | [6] 48.1 µM | [7] 70.8 µM | [8] 20.6 µM | [9] > 10 µM | [10] > 100 µM | [11] 14.3 µM | [12] > 100 µM | [13] 6.65 µM | [14] > 100 µM | [15] 26.2 µM | [16] > 100 µM | [17] 37.2 µM | [18] 57.5 µM
> 100 µM: [4]

CC(=O)OC1CCC2(C)C(=CC(C3C=C4CC(OC(C)=O)CCC4(C)C4=C3C3CC5OC6(CCC(C)CO6)C(C)C5C3(C)CC4)C3=C2CCC2(C)C3CC3OC4(CCC(C)CO4)C(C)C32)C1 (stereo not given)
inactive: [1] 16.5 µM | [2] 16.1 µM | [3] 4.98 µM | [19] 17.7 µM | [5] 13.2 µM | [6] 13 µM | [7] 14.7 µM | [8] 16.3 µM | [9] 17.2 µM | [20] 13.6 µM | [10] 16.5 µM | [11] 16.3 µM | [13] 17.9 µM | [14] 15.6 µM | [15] 15.5 µM | [16] 16.7 µM | [17] 15.1 µM | [18] 15.8 µM
14.3 µM: [4]

CN(/N=C/c1ccc(Cl)c(Cl)c1)C1=NCCN1
30.8 µM: [4]
inactive: [1] 18.5 µM | [2] 16.4 µM | [3] 24.8 µM | [5] 24.8 µM | [6] 16.4 µM | [7] 23.2 µM | [8] 15.8 µM | [9] 15.7 µM | [20] 18.8 µM | [10] 12.4 µM | [11] 23 µM | [13] 59 µM | [14] 28.3 µM | [15] 17.4 µM | [16] 55.8 µM | [17] 17.9 µM | [18] 31.9 µM

Oc1nc(S)nc2c1C(c1ccc(Cl)cc1)c1c(O)nc(S)nc1O2
inactive: [1] > 100 µM | [2] > 100 µM | [3] > 100 µM | [19] > 100 µM | [5] > 100 µM | [6] > 100 µM | [7] > 100 µM | [9] > 100 µM | [20] > 100 µM | [10] > 100 µM | [11] > 100 µM | [12] > 100 µM | [13] > 100 µM | [14] > 100 µM | [15] > 100 µM | [16] > 100 µM | [17] > 100 µM | [18] > 100 µM
> 100 µM: [4]

Oc1c(Cl)cc(CN(Cc2cc(Cl)c(O)c(Cl)c2)C2CCCCC2)cc1Cl
inactive: [1] > 100 µM | [2] > 100 µM | [3] > 100 µM | [19] > 100 µM | [5] > 100 µM | [6] > 100 µM | [7] > 100 µM | [8] > 100 µM | [9] > 100 µM | [20] > 100 µM | [10] > 100 µM | [11] > 100 µM | [13] > 100 µM | [14] > 100 µM | [15] > 100 µM | [16] > 100 µM | [17] > 100 µM | [18] > 100 µM
> 100 µM: [4]

CSc1nc(Nc2cccc(C(F)(F)F)c2)c2c(N)nn(C)c2n1
inactive: [1] > 100 µM | [2] > 100 µM | [3] > 100 µM | [19] > 100 µM | [5] 38 µM | [6] > 100 µM | [7] > 100 µM | [8] 81.3 µM | [9] > 100 µM | [20] 59.4 µM | [10] 71.1 µM | [11] > 100 µM | [14] > 100 µM | [15] > 100 µM | [16] > 100 µM | [17] > 100 µM | [18] > 100 µM
> 100 µM: [4]

O=c1c2c3c(sc2nc2n1N=CN(c1ccc(F)cc1)C2)CCCC3
inactive: [1] > 100 µM | [2] > 100 µM | [3] > 100 µM | [19] > 100 µM | [5] > 100 µM | [6] > 100 µM | [7] > 100 µM | [8] > 100 µM | [9] > 100 µM | [20] > 100 µM | [10] > 100 µM | [11] > 100 µM | [13] > 100 µM | [14] > 100 µM | [15] > 100 µM | [16] > 100 µM | [17] > 100 µM | [18] > 100 µM
> 100 µM: [4]

COc1ccc(/N=C2\C(=N/c3ccc(OC)cc3)N(S(=O)(=O)c3ccccc3)C(=S)N2c2ccc(OC)cc2)cc1
inactive: [1] > 100 µM | [2] > 100 µM | [3] > 100 µM | [19] > 100 µM | [5] > 100 µM | [6] 86.5 µM | [7] > 100 µM | [8] 4.88 µM | [9] > 100 µM | [11] 27.2 µM | [13] > 100 µM | [14] > 100 µM | [15] > 100 µM | [16] > 100 µM | [17] > 100 µM | [18] > 100 µM
> 100 µM: [4]

Cc1cc(C)nc(NC(=O)c2ccc(Br)s2)c1
inactive: [1] > 100 µM | [2] > 100 µM | [3] 3.3 µM | [19] > 100 µM | [5] 20.5 µM | [6] 5.13 µM | [7] > 100 µM | [8] 47.8 µM | [9] 31.8 µM | [20] > 100 µM | [10] 35.3 µM | [11] 21.7 µM | [13] 76.7 µM | [14] > 100 µM | [15] > 100 µM | [16] > 100 µM | [17] 10.7 µM | [18] > 100 µM
94.8 µM: [4]
